The experiment has as its system T1, rMaBGA (recombinant β-1,3-galactosidase MaBGA).
T1 construct: full-length ORF in pET-22b(+) NdeI/XhoI, 6xHis tag (C-terminal by vector and primer design), E. coli BL21(DE3), IMAC + SEC, 66 kDa on SDS-PAGE; primers imply N-terminus MKLGVCYY and native C-terminus AIWQEI before LE-His tag
The experiment is described as follows: ONP release at […] nm, nonlinear Michaelis-Menten fit. Type of experiment: biochemical, Marinomonas sp. BSi20414. As to conditions: 50 mM PBS pH 7.0, 37 °C (general activity assay); 0.25-5 mM ONPG.

For `O=[N+]([O-])c1ccccc1O[C@@H]1O[C@H](CO)[C@H](O)[C@H](O)[C@H]1O` [ONPG], the Michaelis constant (Km) worked out at 6.85 mM.

A word on the Km: it is the concentration of substrate that gives half-maximal velocity.

The record behind these values is paper PMC6267478, “Heterologous Expression of a Thermostable β-1,3-Galactosidase and Its Potential in Synthesis of Galactooligosaccharides” (Marine Drugs, 2018).
